Measurements from ChEMBL document CHEMBL2163339, “Discovery of potent inhibitors of human and mouse fatty acid amide hydrolases” (J Med Chem, 2012).
Activity calls are given as the source filed them.

test system: Mus musculus; assay: Toxicity against CD1 mouse assessed as limbic/striatal stereotypies at 30 mg/kg, po at 240 mins by Irwin test; format: organism-based; set-up: dose 30 mg/kg, route oral; conditions: in vivo, 4 h

Compound	Activity
C#CCCCCCCCCCNC(=O)Oc1cccc(-n2ccc(C(N)=O)c2)c1	Non-toxic

test system: Mus musculus; assay: Toxicity against CD1 mouse assessed as limbic/striatal stereotypies at 10 mg/kg, po at 60 mins by Irwin test; format: organism-based; set-up: dose 10 mg/kg, route oral; conditions: in vivo, 1 h

Compound	Activity
C#CCCCCCCCCCNC(=O)Oc1cccc(-n2ccc(C(N)=O)c2)c1	Toxic

molecular target: Cannabinoid receptor 1 (Mus musculus) (UniProt P47746); assay: Displacement of [3H]CP55.940 from CB1 receptor in mouse brain fraction; format: tissue-based; conditions: not given
Sequence (P47746 whole entry): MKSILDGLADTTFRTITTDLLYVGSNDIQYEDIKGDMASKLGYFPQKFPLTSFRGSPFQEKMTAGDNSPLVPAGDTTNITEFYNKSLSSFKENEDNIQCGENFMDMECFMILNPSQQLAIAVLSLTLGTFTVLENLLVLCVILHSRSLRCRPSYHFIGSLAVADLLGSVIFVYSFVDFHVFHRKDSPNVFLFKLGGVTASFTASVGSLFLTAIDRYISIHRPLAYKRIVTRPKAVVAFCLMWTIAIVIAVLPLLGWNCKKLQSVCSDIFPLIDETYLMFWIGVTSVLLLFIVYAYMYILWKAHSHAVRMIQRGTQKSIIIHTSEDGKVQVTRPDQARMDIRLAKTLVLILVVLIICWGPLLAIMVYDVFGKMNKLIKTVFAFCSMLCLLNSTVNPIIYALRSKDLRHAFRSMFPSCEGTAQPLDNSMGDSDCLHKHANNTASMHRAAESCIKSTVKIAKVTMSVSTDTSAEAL

Compound	Activity
C#CCCCCCCCCCNC(=O)Oc1cccc(-n2ccc(C(N)=O)c2)c1	inactive

test system: Mus musculus; assay: Toxicity against CD1 mouse assessed as limbic/striatal stereotypies at 100 mg/kg, po at 60 mins by Irwin test; format: organism-based; set-up: dose 100 mg/kg, route oral; conditions: in vivo, 1 h

Compound	Activity
C#CCCCCCCCCCNC(=O)Oc1cccc(-n2ccc(C(N)=O)c2)c1	Toxic

test system: Rattus norvegicus; assay: Analgesic activity in rat assessed as increase in paw withdrawal threshold at 10 mg/kg, po; format: functional, organism-based; set-up: dose 10 mg/kg; conditions: not given

Compound	Activity
C#CCCCCCCCCCNC(=O)Oc1cccc(-n2ccc(C(N)=O)c2)c1	inactive

species: Mus musculus; assay: Inhibition of DAGL-mediated 2AG synthesis in mouse brain homogenate using […] as substrate incubated for 20 mins prior to substrate addition; format: tissue-based; conditions: not given

Compound	inhibition
C#CCCCCCCCCCNC(=O)Oc1cccc(-n2ccc(C(N)=O)c2)c1	inactive

test system: Mus musculus; assay: Toxicity against CD1 mouse assessed as limbic/striatal stereotypies at 100 mg/kg, po at 240 mins by Irwin test; format: organism-based; set-up: dose 100 mg/kg, route oral; conditions: in vivo, 4 h

Compound	Activity
C#CCCCCCCCCCNC(=O)Oc1cccc(-n2ccc(C(N)=O)c2)c1	Non-toxic

test system: Mus musculus; assay: Toxicity against CD1 mouse assessed as limbic/striatal stereotypies at 10 mg/kg, po at 240 mins by Irwin test; format: organism-based; set-up: dose 10 mg/kg, route oral; conditions: in vivo, 4 h

Compound	Activity
C#CCCCCCCCCCNC(=O)Oc1cccc(-n2ccc(C(N)=O)c2)c1	Non-toxic

test system: Rattus norvegicus; assay: Analgesic activity in rat assessed as increase in paw withdrawal threshold at 100 mg/kg, po; format: functional, organism-based; set-up: dose 100 mg/kg; conditions: not given

Compound	Activity
C#CCCCCCCCCCNC(=O)Oc1cccc(-n2ccc(C(N)=O)c2)c1	Active

test system: Mus musculus; assay: Toxicity against CD1 mouse assessed as limbic/striatal stereotypies at 30 mg/kg, po at 60 mins by Irwin test; format: organism-based; set-up: dose 30 mg/kg, route oral; conditions: in vivo, 1 h

Compound	Activity
C#CCCCCCCCCCNC(=O)Oc1cccc(-n2ccc(C(N)=O)c2)c1	Toxic

test system: Mus musculus; assay: Anxiolytic activity in mouse at 3 mg/kg, po measured for 5 mins by elevated plus maze test; format: organism-based; set-up: dose 3 mg/kg, route oral; conditions: in vivo

Compound	Activity
C#CCCCCCCCCCNC(=O)Oc1cccc(-n2ccc(C(N)=O)c2)c1	Non-toxic

molecular target: T1, Fatty-acid amide hydrolase 1 (Mus musculus, UniProt O08914); assay: Inhibition of mouse FAAH isolated from brain homogenate using [3H-ethanolamine]AEA as substrate incubated for 20 mins prior to substrate addition measured after 15 mins by beta counting analysis; conditions: not given
T1 sequence (O08914 whole entry): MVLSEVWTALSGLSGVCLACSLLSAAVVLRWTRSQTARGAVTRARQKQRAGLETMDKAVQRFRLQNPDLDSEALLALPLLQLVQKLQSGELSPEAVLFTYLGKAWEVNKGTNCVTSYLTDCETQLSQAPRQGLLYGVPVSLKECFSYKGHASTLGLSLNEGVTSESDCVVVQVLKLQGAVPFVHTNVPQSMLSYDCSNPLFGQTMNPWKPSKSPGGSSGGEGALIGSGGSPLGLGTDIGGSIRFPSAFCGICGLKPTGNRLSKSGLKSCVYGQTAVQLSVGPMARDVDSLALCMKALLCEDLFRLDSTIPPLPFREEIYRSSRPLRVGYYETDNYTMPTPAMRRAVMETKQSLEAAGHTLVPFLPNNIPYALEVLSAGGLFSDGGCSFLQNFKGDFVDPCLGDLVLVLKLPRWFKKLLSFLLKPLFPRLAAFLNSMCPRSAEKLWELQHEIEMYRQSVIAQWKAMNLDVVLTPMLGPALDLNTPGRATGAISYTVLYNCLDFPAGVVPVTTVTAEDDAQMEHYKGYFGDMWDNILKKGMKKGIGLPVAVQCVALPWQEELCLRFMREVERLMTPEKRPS

Compound	IC50	Ki
C#CCCCCCCCCCNC(=O)Oc1cccc(-n2ccc(C(N)=O)c2)c1	0.67 nM	0.18 nM

test system: Mus musculus; assay: Anxiolytic activity in mouse at 30 mg/kg, po measured for 5 mins by elevated plus maze test; format: organism-based; set-up: dose 30 mg/kg, route oral; conditions: in vivo

Compound	Activity
C#CCCCCCCCCCNC(=O)Oc1cccc(-n2ccc(C(N)=O)c2)c1	Non-toxic

test system: Mus musculus; assay: Anxiolytic activity in mouse at 10 mg/kg, po measured for 5 mins by elevated plus maze test; format: organism-based; set-up: dose 10 mg/kg, route oral; conditions: in vivo

Compound	Activity
C#CCCCCCCCCCNC(=O)Oc1cccc(-n2ccc(C(N)=O)c2)c1	Non-toxic

molecular target: Cannabinoid receptor 2 (Mus musculus) (UniProt P47936); assay: Displacement of [3H]CP55.940 from CB2 receptor in mouse spleen fraction; format: tissue-based; conditions: not given
Sequence (P47936 whole entry): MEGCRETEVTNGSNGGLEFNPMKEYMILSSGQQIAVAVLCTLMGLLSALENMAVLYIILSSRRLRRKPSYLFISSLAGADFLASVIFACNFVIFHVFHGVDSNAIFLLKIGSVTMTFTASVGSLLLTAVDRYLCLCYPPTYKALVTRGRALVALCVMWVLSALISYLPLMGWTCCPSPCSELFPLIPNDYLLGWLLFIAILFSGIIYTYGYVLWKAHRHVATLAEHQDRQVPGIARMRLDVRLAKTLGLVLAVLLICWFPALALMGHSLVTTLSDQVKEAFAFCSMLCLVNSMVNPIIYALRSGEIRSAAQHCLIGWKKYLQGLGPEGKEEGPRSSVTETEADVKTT

Compound	Activity
C#CCCCCCCCCCNC(=O)Oc1cccc(-n2ccc(C(N)=O)c2)c1	inactive

test system: Rattus norvegicus; assay: Analgesic activity in rat assessed as increase in paw withdrawal threshold at 30 mg/kg, po; format: functional, organism-based; set-up: dose 30 mg/kg; conditions: not given

Compound	Activity
C#CCCCCCCCCCNC(=O)Oc1cccc(-n2ccc(C(N)=O)c2)c1	Active

molecular target: T2, Monoglyceride lipase (Mus musculus) (UniProt O35678); assay: Inhibition of MAGL-mediated 2AG hydrolysis in mouse brain homogenate using [3H]2OG as substrate incubated for 20 mins prior to substrate addition; format: tissue-based; conditions: not given
T2 sequence (whole entry): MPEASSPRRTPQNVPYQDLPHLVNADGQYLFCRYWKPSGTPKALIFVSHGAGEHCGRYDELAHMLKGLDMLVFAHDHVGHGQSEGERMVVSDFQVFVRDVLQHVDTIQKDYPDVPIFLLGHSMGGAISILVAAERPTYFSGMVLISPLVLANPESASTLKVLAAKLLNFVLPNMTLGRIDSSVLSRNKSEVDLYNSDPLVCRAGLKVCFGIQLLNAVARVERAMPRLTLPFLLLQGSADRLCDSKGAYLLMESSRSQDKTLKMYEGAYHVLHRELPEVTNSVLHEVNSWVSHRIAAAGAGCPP

Compound	inhibition
C#CCCCCCCCCCNC(=O)Oc1cccc(-n2ccc(C(N)=O)c2)c1	inactive

molecular target: Transient receptor potential cation channel subfamily V member 1 (Mus musculus) (UniProt Q704Y3); assay: Displacement of [3H]RTX from TRPV1 receptor in mouse brain fraction; format: tissue-based; conditions: not given
Sequence (Q704Y3 whole entry): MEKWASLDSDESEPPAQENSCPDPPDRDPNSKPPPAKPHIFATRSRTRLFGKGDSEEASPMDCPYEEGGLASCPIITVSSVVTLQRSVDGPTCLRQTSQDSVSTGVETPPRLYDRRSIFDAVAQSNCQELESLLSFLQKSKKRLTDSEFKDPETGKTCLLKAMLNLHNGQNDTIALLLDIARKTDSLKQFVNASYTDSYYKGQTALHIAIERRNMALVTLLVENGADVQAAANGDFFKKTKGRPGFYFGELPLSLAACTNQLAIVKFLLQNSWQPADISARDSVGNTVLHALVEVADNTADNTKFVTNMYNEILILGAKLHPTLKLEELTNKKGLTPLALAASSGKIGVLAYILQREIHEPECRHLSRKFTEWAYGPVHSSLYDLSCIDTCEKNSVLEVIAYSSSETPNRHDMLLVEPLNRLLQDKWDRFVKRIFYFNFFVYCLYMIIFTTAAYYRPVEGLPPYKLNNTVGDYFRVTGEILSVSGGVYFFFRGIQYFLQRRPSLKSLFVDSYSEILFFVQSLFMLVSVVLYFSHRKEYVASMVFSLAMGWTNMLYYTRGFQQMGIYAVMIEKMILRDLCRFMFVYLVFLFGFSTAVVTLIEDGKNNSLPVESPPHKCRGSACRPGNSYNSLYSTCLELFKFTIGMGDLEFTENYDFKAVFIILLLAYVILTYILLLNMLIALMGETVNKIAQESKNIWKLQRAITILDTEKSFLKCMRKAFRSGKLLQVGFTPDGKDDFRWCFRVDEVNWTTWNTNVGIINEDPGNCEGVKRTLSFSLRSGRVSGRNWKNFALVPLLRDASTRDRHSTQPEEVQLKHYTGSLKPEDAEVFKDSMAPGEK

Compound	Activity
C#CCCCCCCCCCNC(=O)Oc1cccc(-n2ccc(C(N)=O)c2)c1	inactive

molecular target: T3, N-acyl-phosphatidylethanolamine-hydrolyzing phospholipase D (Mus musculus) (UniProt Q8BH82); assay: Inhibition of NAPE-PLD-meidated AEA synthesis in mouse brain homogenate using [3H]NArPE as substrate incubated for 20 mins prior to substrate addition; format: tissue-based; conditions: not given
T3 sequence (whole entry): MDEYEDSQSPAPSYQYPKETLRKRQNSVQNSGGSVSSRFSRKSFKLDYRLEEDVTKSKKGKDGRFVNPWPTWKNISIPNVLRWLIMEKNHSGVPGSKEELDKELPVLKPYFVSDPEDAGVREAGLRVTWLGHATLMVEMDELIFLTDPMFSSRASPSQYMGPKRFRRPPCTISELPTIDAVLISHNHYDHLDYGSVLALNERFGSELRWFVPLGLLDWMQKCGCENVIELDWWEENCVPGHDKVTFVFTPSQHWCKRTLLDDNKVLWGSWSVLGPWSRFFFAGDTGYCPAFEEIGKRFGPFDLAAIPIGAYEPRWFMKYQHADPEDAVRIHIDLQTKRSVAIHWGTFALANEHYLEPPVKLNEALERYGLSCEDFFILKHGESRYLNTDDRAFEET

Compound	inhibition
C#CCCCCCCCCCNC(=O)Oc1cccc(-n2ccc(C(N)=O)c2)c1	inactive
